In ChEMBL document CHEMBL1201862, “PubChem BioAssay data set” (2004):
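Results reflect a 48-hour exposure of cells in 96-well plates to compound at five concentrations. GI50 marks 50% less growth.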 Calls of active or inactive are those of the source. Rule as the data show it: active = GI50 up to about 1.1 µM and inactive = higher.

Experiments:
Test in all cases: NCI tumour cell line growth inhibition, 48 h
DMS-273 = test system: DMS-273
HCT-15 = test system: HCT-15
HOP-18 = test system: HOP-18
K562 = test system: K562
LXFL 529 = test system: LXFL 529
M19-MEL = test system: M19-MEL
MOLT-4 = test system: MOLT-4
NCI-H23 = test system: NCI-H23
RPMI-8226 = test system: RPMI-8226
SF-268 = test system: SF-268
SF-295 = test system: SF-295
SK-OV-3 = test system: SK-OV-3
SNB-19 = test system: SNB-19
SR = test system: SR
SW-620 = test system: SW-620
XF498 = test system: XF498
DLD-1 = test system: DLD-1

Compound | GI50 (DMS-273) | GI50 (HCT-15) [µM] | GI50 (HOP-18) | GI50 (K562) | GI50 (LXFL 529) | GI50 (M19-MEL) | GI50 (MOLT-4) | GI50 (NCI-H23) | GI50 (RPMI-8226) | GI50 (SF-268) | GI50 (SF-295) | GI50 (SK-OV-3) | GI50 (SNB-19) | GI50 (SR) | GI50 (SW-620) | GI50 (XF498) | GI50 (DLD-1)
COC(=O)C12CC3CC(CC(C(=O)O)(C3)C1)C2 | > 100 µM (inactive) | > 100 | > 100 µM (inactive) | > 100 µM (inactive) | > 100 µM (inactive) | > 100 µM (inactive) | > 100 µM (inactive) | > 100 µM (inactive) | > 100 µM (inactive) | > 100 µM (inactive) | > 100 µM (inactive) | > 100 µM (inactive) | > 100 µM (inactive) | > 100 µM (inactive) | > 100 µM (inactive) | > 100 µM (inactive) | –
Cc1ccc(NC(=O)CC(=O)n2nc(-c3ccccc3)c(/N=N/c3ccccc3Cl)c2-c2ccccc2)cc1 | 41.8 µM (inactive) | > 10 | 38.1 µM (inactive) | 94.8 µM (inactive) | 71.8 µM (inactive) | > 10 µM (inactive) | > 10 µM (inactive) | 39.5 µM (inactive) | > 10 µM (inactive) | > 10 µM (inactive) | 48 µM (inactive) | 27 µM (inactive) | 38.8 µM (inactive) | > 100 µM (inactive) | 92 µM (inactive) | 49 µM (inactive) | > 10 µM (inactive)
